Here are results for 24 compounds from patent publication US10392391B2 (Vertex Pharmaceuticals Incorporated, priority 2012, dated 2019).

Bounds are passed on as bounds.

Chain of ATR kinase (full-length ATR) (Q13535 whole entry): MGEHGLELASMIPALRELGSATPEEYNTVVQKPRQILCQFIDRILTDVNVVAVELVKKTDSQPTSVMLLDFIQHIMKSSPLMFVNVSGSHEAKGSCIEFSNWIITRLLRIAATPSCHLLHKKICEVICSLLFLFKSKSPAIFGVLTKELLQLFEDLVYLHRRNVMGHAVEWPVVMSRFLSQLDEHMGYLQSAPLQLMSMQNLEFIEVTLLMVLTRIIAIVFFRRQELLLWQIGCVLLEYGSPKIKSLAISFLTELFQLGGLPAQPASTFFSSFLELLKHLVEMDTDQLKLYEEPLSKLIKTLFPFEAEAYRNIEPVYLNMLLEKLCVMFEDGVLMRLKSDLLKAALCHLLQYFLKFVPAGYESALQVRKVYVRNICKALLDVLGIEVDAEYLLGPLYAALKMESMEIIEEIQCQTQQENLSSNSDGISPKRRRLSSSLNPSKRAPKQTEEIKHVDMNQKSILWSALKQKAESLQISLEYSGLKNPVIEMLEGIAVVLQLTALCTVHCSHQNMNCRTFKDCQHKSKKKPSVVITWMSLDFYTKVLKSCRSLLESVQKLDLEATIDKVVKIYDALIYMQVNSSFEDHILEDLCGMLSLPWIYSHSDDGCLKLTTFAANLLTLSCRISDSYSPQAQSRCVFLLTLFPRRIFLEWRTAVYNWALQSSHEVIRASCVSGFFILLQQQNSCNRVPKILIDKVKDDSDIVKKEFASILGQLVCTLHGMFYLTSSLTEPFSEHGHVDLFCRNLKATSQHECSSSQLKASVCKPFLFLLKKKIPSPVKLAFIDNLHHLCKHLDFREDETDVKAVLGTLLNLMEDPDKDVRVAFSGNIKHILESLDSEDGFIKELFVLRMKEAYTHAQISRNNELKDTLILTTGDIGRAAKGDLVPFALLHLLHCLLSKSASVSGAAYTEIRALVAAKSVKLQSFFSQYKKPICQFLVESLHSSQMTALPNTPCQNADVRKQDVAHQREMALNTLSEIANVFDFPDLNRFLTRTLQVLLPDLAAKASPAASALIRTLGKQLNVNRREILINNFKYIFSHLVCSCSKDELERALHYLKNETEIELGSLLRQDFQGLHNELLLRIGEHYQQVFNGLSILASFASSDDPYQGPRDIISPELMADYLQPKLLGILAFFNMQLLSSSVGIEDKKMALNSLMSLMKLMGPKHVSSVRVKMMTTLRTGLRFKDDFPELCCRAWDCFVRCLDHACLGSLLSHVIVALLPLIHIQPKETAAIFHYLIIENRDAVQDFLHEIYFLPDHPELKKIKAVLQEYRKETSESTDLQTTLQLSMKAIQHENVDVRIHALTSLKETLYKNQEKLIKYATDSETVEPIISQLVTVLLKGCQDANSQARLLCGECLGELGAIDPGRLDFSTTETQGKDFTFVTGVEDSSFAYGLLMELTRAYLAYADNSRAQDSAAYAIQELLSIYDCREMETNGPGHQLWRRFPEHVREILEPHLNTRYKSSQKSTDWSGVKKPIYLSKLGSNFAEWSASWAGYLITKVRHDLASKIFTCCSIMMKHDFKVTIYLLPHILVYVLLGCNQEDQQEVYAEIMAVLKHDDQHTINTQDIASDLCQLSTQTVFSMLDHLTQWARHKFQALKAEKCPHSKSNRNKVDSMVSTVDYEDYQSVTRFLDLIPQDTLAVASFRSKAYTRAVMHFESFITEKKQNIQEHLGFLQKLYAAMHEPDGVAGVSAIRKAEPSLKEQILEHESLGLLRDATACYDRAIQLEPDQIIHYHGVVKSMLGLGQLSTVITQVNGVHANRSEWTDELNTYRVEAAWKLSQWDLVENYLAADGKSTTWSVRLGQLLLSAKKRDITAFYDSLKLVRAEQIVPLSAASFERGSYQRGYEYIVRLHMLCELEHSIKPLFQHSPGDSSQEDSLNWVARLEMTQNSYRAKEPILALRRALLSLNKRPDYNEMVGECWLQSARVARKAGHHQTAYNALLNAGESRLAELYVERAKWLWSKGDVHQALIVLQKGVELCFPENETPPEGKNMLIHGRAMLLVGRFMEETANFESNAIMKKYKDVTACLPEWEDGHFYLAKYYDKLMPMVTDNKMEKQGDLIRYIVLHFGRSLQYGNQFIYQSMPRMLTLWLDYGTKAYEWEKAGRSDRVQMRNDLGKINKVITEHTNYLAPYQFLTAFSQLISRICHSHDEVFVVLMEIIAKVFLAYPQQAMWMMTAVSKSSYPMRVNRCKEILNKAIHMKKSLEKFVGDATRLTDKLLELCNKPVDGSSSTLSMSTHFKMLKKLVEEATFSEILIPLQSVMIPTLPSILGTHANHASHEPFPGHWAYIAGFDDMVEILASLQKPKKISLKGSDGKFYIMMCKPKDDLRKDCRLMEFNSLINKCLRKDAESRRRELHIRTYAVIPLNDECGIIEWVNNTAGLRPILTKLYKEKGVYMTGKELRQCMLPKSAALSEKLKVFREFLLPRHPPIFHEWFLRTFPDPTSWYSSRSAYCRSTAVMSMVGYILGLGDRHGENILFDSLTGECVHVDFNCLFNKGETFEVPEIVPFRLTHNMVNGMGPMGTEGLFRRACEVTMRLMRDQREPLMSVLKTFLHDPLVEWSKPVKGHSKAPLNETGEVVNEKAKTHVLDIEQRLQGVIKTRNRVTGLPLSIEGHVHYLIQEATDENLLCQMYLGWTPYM

The test has as its target ATR kinase (full-length ATR) (Homo sapiens (Human), UniProt Q13535). In words: ATR inhibition assay (radioactive-phosphate incorporation). It is filed as biochemical. To be noted: Ki(app), 5 nM full-length ATR, 10 μM ATP, 25° C. The essentials:
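Radiometric 33P incorporation by 5 nM full-length ATR into 800 μM target peptide with 10 μM [γ-33P]ATP, in 50 mM Tris/HCl pH 7.5, 10 mM MgCl2, 1 mM DTT, 7% DMSO, 25° C. Compound pre-incubated 10 minutes; reaction stopped after 24 hours, captured on phosphocellulose. Ki(app) from non-linear regression of initial rates.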
In the case of `Cc1cncc(NC(=O)c2c(N)nn3cc(F)cnc23)c1N1CCC(C(=O)N2CCN(C)CC2)CC1` [I-G-55, 2-amino-6-fluoro-N-(5-methyl-4-(4-(4-methylpiperazine-1-carbonyl)piperidin-1-yl)pyridin-3-yl)pyrazolo[1,5-a]pyrimidine-3-carboxamide], the Ki lay in the range of 10 to 1000 nM.

In the case of `Nc1nn2cc(F)cnc2c1C(=O)Nc1cnccc1O[C@H]1CCCNC1` [I-O-85, (S)-2-amino-6-fluoro-N-(4-(piperidin-3-yloxy)pyridin-3-yl)pyrazolo[1,5-a]pyrimidine-3-carboxamide], the Ki was 10 to 1000 nM.

On to `Cc1nccn1-c1ccncc1NC(=O)c1c(N)nn2cc(F)cnc12` [I-N-28, 2-amino-6-fluoro-N-(4-(2-methyl-1H-imidazol-1-yl)pyridin-3-yl)pyrazolo[1,5-a]pyrimidine-3-carboxamide], for which the Ki was 10 to 1000 nM.

As to `CN(C)Cc1ccc(Oc2ccncc2NC(=O)c2c(N)nn3cc(F)cnc23)cn1` [I-O-3, 2-amino-N-(4-((6-((dimethylamino)methyl)pyridin-3-yl)oxy)pyridin-3-yl)-6-fluoropyrazolo[1,5-a]pyrimidine-3-carboxamide], the Ki was 10 to 1000 nM.

For the compound `Nc1nn2cc(F)cnc2c1C(=O)Nc1cnccc1N1CCC(S(=O)(=O)N2CCOCC2)CC1` [I-N-170, 2-amino-6-fluoro-N-(4-(4-(morpholinosulfonyl)piperidin-1-yl)pyridin-3-yl)pyrazolo[1,5-a]pyrimidine-3-carboxamide], the Ki lay in the range of 10 to 1000 nM.

As to `CN1CCC(NC(=O)C2CCN(c3c(F)cncc3NC(=O)c3c(N)nn4cc(F)cnc34)CC2)C1` (stereo not drawn) [I-G-24, 2-amino-6-fluoro-N-(5-fluoro-4-(4-((1-methylpyrrolidin-3-yl)carbamoyl)piperidin-1-yl)pyridin-3-yl)pyrazolo[1,5-a]pyrimidine-3-carboxamide], the Ki fell in the range of 10 to 1000 nM.

In the case of `Nc1nn2cc(Cl)cnc2c1C(=O)Nc1cnccc1OCCCO` [I-O-53, 2-amino-6-chloro-N-(4-(3-hydroxypropoxy)pyridin-3-yl)pyrazolo[1,5-a]pyrimidine-3-carboxamide], the Ki lay in the range of 10 to 1000 nM.

In the case of `Nc1nn2cc(F)cnc2c1C(=O)Nc1cnccc1OC1CN2CCC1CC2` (racemic) [I-O-6, (R,S)-2-amino-6-fluoro-N-(4-(quinuclidin-3-yloxy)pyridin-3-yl)pyrazolo[1,5-a]pyrimidine-3-carboxamide], the Ki is 10 to 1000 nM.

As to `C[C@H]1CN(C2COC2)CCN1c1ccncc1NC(=O)c1c(N)nn2cc(F)cnc12` [I-N-24, (S)-2-amino-6-fluoro-N-(4-(2-methyl-4-(oxetan-3-yl)piperazin-1-yl)pyridin-3-yl)pyrazolo[1,5-a]pyrimidine-3-carboxamide], the Ki fell in the range of 10 to 1000 nM.

In the case of `Nc1nn2cc(F)cnc2c1C(=O)Nc1cnccc1N1CCN(C2CCOCC2)CC1` [I-N-11, 2-amino-6-fluoro-N-(4-(4-(tetrahydro-2H-pyran-4-yl)piperazin-1-yl)pyridin-3-yl)pyrazolo[1,5-a]pyrimidine-3-carboxamide], the Ki was in the range of 10 to 1000 nM.

Turning to `Nc1nn2cc(F)cnc2c1C(=O)Nc1cnccc1-c1ccc(C(=O)N2CCC(N3CCCC3)CC2)nc1` [I-C-53, 2-amino-6-fluoro-N-(6-(4-(pyrrolidin-1-yl)piperidine-1-carbonyl)-[3,4′-bipyridin]-3′-yl)pyrazolo[1,5-a]pyrimidine-3-carboxamide], the Ki is 10 to 1000 nM.

`Cc1nncn1-c1ccncc1NC(=O)c1c(N)nn2cc(F)cnc12` [I-N-263, 2-amino-6-fluoro-N-(4-(3-methyl-4H-1,2,4-triazol-4-yl)pyridin-3-yl)pyrazolo[1,5-a]pyrimidine-3-carboxamide]: the Ki lay within 10 to 1000 nM.

Consider `Nc1nn2cc(F)cnc2c1C(=O)Nc1cnccc1N1CCC(S(=O)(=O)N2CCC2)CC1` [I-N-271, 2-amino-N-(4-(4-(azetidin-1-ylsulfonyl)piperidin-1-yl)pyridin-3-yl)-6-fluoropyrazolo[1,5-a]pyrimidine-3-carboxamide], for which the Ki lay in the range of 10 to 1000 nM.

On to `Cc1ncn(C)c1-c1ccncc1NC(=O)c1c(N)nn2cc(F)cnc12` [I-C-78, 2-amino-N-(4-(1,4-dimethyl-1H-imidazol-5-yl)pyridin-3-yl)-6-fluoropyrazolo[1,5-a]pyrimidine-3-carboxamide], for which the Ki lay in the range of 10 to 1000 nM.

With `Nc1nn2cc(F)cnc2c1C(=O)Nc1cncc(F)c1N1CCN(C(=O)C2CNC2)CC1` [I-N-168, 2-amino-N-(4-(4-(azetidine-3-carbonyl)piperazin-1-yl)-5-fluoropyridin-3-yl)-6-fluoropyrazolo[1,5-a]pyrimidine-3-carboxamide], the Ki was 10 to 1000 nM.

Consider `Nc1nn2cc(Cl)cnc2c1C(=O)Nc1cnccc1O[C@H]1CCNC1` [I-O-76, (S)-2-amino-6-chloro-N-(4-(pyrrolidin-3-yloxy)pyridin-3-yl)pyrazolo[1,5-a]pyrimidine-3-carboxamide], for which the Ki fell in the range of 10 to 1000 nM.

As to `COCCN1CCC[C@H](Oc2ccncc2NC(=O)c2c(N)nn3cc(Cl)cnc23)C1` [I-O-67, (S)-2-amino-6-chloro-N-(4-((1-(2-methoxyethyl)piperidin-3-yl)oxy)pyridin-3-yl)pyrazolo[1,5-a]pyrimidine-3-carboxamide], the Ki lay within 10 to 1000 nM.

With `Nc1nn2cc(Cl)cnc2c1C(=O)Nc1cnccc1N1CCN2CCC1CC2` [I-N-56, N-(4-(1,4-diazabicyclo[3.2.2]nonan-4-yl)pyridin-3-yl)-2-amino-6-chloropyrazolo[1,5-a]pyrimidine-3-carboxamide], the Ki lay in the range of 10 to 1000 nM.

For the compound `CN(C)CCN(C)C(=O)C1CCN(c2c(F)cncc2NC(=O)c2c(N)nn3cc(F)cnc23)CC1` [I-G-31, 2-amino-N-(4-(4-((2-(dimethylamino)ethyl)(methyl)carbamoyl)piperidin-1-yl)-5-fluoropyridin-3-yl)-6-fluoropyrazolo[1,5-a]pyrimidine-3-carboxamide], the Ki was in the range of 10 to 1000 nM.

Regarding `N#CCc1cnc2c(C(=O)Nc3cnccc3OC3CCNCC3)c(N)nn2c1` [I-O-84, 2-amino-6-(cyanomethyl)-N-(4-(piperidin-4-yloxy)pyridin-3-yl)pyrazolo[1,5-a]pyrimidine-3-carboxamide], the Ki was below 10 nM.

`Nc1nn2cc(Cl)cnc2c1C(=O)Nc1cnccc1N1CCN(C2CCC2)CC1` [I-N-48, 2-amino-6-chloro-N-(4-(4-cyclobutylpiperazin-1-yl)pyridin-3-yl)pyrazolo[1,5-a]pyrimidine-3-carboxamide]: the Ki lay in the range of 10 to 1000 nM.

`Nc1nn2cc(F)cnc2c1C(=O)Nc1cnccc1OC1CCN(C2COC2)CC1` [I-O-11, 2-amino-6-fluoro-N-(4-((1-(oxetan-3-yl)piperidin-4-yl)oxy)pyridin-3-yl)pyrazolo[1,5-a]pyrimidine-3-carboxamide]: the Ki fell in the range of 10 to 1000 nM.

Regarding `CN1CCC(N(C)S(=O)(=O)C2CCN(c3c(F)cncc3NC(=O)c3c(N)nn4cc(F)cnc34)CC2)CC1` [I-N-148, 2-amino-6-fluoro-N-(5-fluoro-4-(4-(N-methyl-N-(1-methylpiperidin-4-yl)sulfamoyl)piperidin-1-yl)pyridin-3-yl)pyrazolo[1,5-a]pyrimidine-3-carboxamide], the Ki lay within 10 to 1000 nM.

Turning to `Nc1nn2cc(F)cnc2c1C(=O)Nc1cnccc1C1CCN(S(=O)(=O)C2CC2)CC1` [I-C-47, 2-amino-N-(4-(1-(cyclopropylsulfonyl)piperidin-4-yl)pyridin-3-yl)-6-fluoropyrazolo[1,5-a]pyrimidine-3-carboxamide], the Ki was in the range of 10 to 1000 nM.
